Assays:
[1] = FDO stability under the diet making conditions; type: physicochemical; conditions: mixed with ground Purina Mouse Chow, 70° C. for 3 hours under vacuum; ethanol extract, HPLC and UV absorption
Protocol: (§1) Three key parameters were measured prior to starting the study: (a) FDO stability under the diet making conditions (70° C. for 3 hours under vacuum), (b) FDO stability to stomach pH (approximately pH 1), and (c) FDO absorbed intact into the blood stream of the mouse. The following were the outcomes: • (a) The FDO was mixed with ground Purina Mouse Chow® and heated to 70° C. for 3 hours under vacuum; the FDO was then extracted from the chow with ethanol and assayed by HPLC and by UV absorption spectrum. […]

[2] = FDO stability to stomach pH; type: physicochemical; conditions: 2:1:1 ethanol:propylene glycol:water at pH 1 (HCl); HPLC and UV absorption
Protocol: as §1

[3] = FDO absorbed intact into the blood stream of the mouse; type: in vivo; conditions: Skh mice fed chow containing 0.01% 14C-FDO for 14 days; blood analyzed by HPLC
Protocol: as §1

[4] = FDO content of FDO-containing diets during storage over the study; type: physicochemical; conditions: diets stored at 4° C., sampled at 3 month intervals over approximately two years; UV absorption
Protocol: (§2) The FDO-containing and control diets were prepared by Teklad (Madison, Wis.) by addition of FDO to standard Purina Mouse Chow®. Diets were stored at 4° C. in sealed containers until used. The levels of FDO in the diets were 0%, 0.01%, and 0.1%.
At 3 month intervals throughout the study, samples of the FDO-containing Purina Mouse Chow® were ground and extracted with ethanol; the ethanol was then analyzed for FDO content by UV absorption (obtaining the absorption spectrum versus the FDO standard and then determining level of FDO at the peak absorption).

[5] = test system: female albino Skh:HR-1 hairless mice; assay: Effect of dietary FDO on mouse average life span (survival); type: in vivo; conditions: for Mean survival: control 553 days
Protocol: Forty eight (48) female albino Skh:HR-1 hairless mice were obtained from Charles River Laboratories (Portage, Mich.). At the start of the study, the mice were approximately 20 weeks old. The mice were housed four to a standard plastic cage and given feed and water ad libitum. Sixteen (16) mice were placed on each of the three test diets described below.
The 2-Furildioxime (FDO) was obtained from Aldrich Chemical Co. (Milwaukee, Wis.).
as §2
Throughout the study, mouse weights, food consumption, and date of death were recorded.

[6] = 0.01% and 0.1% FDO diets vs. 0% control diet

## ON=C(C(=NO)c1ccco1)c1ccco1 [FDO, 2-furildioxime]
[1]
  loss of FDO under diet making conditions: no detectable loss
[2]
  loss of FDO at stomach pH: no detectable loss
[3]
  FDO in blood after dietary administration: Intact FDO was detected
[4]
  loss of FDO from the diets: no detectable loss
[5]; 0.01% FDO diet vs. control diet, p = 0.05
  % Increase in Survival Time: 14%
[5]; 0.01% FDO diet, p = 0.05 vs. control
  Mean survival: 632 days
[5]; [6]
  mouse body weights: not different
  mouse food consumption: not different
[5]; 0.1% FDO diet vs. control diet, p = 0.02
  % Increase in Survival Time: 20%
[5]; 0.1% FDO diet, p = 0.02 vs. control
  Mean survival: 664 days
[5]; FDO-fed mice
  death from all causes: delayed to a later date
[5]; autopsy, 0.01% and 0.1% FDO diets vs. control
  differences in the causes of death among the diet groups: not any differences
[5]; both FDO diets (0.01% and 0.1%), statistical analysis
  life span relative to the control diet: significantly increased
[5]; daily observation, 0.01% and 0.1% FDO diets vs. control
  appearance or behavioral differences: No differences
